Tests used:
Syk = target: T1, Syk (Homo sapiens, UniProt P43405); assay: Syk enzyme inhibition (Z-LYTE FRET); format: biochemical; details: Table 2A
T1 construct: purchased Life Technologies
Outline: (§1)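 Enzyme (1000, 1400 or 2000 ng/mL stocks for c-Src, Hck, Syk respectively) preincubated 2 h at RT with compound (0.0012–40 μg/mL series), then FRET peptide plus ATP (800 μM c-Src; 60 μM Hck, Syk stocks) for 1 h. Protease development 1 h; phosphorylation from coumarin/fluorescein emission ratio.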

[1] = system: IL-8 release in d-U937 cells; assay: LPS-induced IL-8 release in d-U937 cells; format: cell-based; details: Homo sapiens, dU937, LPS 0.1 μg/mL 4 h
Outline: (§2)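 U937 human monocytic cells were differentiated to macrophage-like cells with PMA (100-200 ng/mL) for 48 to 72 h, pre-treated with compound for 2 h, then challenged with E. coli O111:B4 LPS (0.1 μg/mL) for 4 h. TNFα and IL-8 in supernatants were measured by sandwich ELISA; REC50 came from concentration-response curves.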

GSK 3α enzyme isoform = target: T2, GSK 3α enzyme isoform (Homo sapiens, UniProt P49840); assay: GSK 3α enzyme inhibition (Z-LYTE FRET); format: biochemical; details: Table 2A; read-out: IC50 Values for Enzyme Inhibition GSK3α
T2 construct: purchased Life Technologies
Outline: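 Z-LYTE FRET kinase assay: GSK3α protein (500 ng/mL stock) preincubated with compound (0.0012–40 μg/mL stocks) for 2 h at RT. FRET peptide (8 μM stock) and ATP (40 μM stock) added for 1 h at RT, then protease development for 1 h. Phosphorylation taken from the coumarin/fluorescein emission ratio.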

p38MAPKγ (MAPK12) = target: T3, p38MAPKγ (MAPK12) (Homo sapiens, UniProt P53778); assay: p38 MAPKγ enzyme inhibition (Z-LYTE FRET); format: biochemical; details: Table 2A; read-out: IC50 Values for Enzyme Inhibition p38 MAPKγ
T3 construct: purchased Life Technologies
T3 sequence (P53778 1-367): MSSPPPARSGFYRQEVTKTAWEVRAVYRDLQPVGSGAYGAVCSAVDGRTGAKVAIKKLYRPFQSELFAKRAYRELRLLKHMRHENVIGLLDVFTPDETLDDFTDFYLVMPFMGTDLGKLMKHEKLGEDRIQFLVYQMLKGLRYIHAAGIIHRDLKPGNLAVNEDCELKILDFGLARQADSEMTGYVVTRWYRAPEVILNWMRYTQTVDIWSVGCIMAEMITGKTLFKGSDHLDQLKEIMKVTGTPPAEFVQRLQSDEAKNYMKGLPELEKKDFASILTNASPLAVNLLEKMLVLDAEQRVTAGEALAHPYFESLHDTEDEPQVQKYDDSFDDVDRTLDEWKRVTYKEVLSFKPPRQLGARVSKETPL
Outline: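 Z-LYTE read-out: after 1 h protease development, only non-phosphorylated peptide is cleaved, and the donor/acceptor (coumarin/fluorescein) ratio reports phosphorylation. Beforehand, enzyme and compound (stock concentrations 0.0012–40 μg/mL) were preincubated 2 h at RT, then the kinase reaction ran 1 h at RT with peptide and ATP (8 μM and 400 μM stocks).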

d-U937 cells = assay: Cell viability: MTT assay in differentiated U937 cells; format: cell-based, human; details: 10 μg/mL
Outline: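 Differentiated U937 cells exposed to compound at a final 10 μg/mL, either 4 h in 5% FCS RPMI1640 or 24 h in 10% FCS RPMI1640. MTT added for 1 h, formazan dissolved in DMSO, absorbance read at 550 nm; % viability loss relative to 0.5% DMSO vehicle, with increases shown as negative values.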

c-Src = target: T4, c-Src (Homo sapiens, UniProt P12931); assay: c-Src enzyme inhibition (Z-LYTE FRET); format: biochemical; details: Table 2A
T4 construct: purchased Life Technologies
Outline: as §1

[2] = system: TNFα release in d-U937 cells; assay: LPS-induced TNFα release in d-U937 cells; format: cell-based; details: Homo sapiens, dU937; read-out: LPS Induced Release TNFα REC50 (dU937); note: relative to 10 µg/mL BIRB-796
Outline: as §2

Hck = target: T5, Hck (Homo sapiens, UniProt P08631); assay: Hck enzyme inhibition (Z-LYTE FRET); format: biochemical; details: Table 2A
T5 construct: purchased Life Technologies
Outline: as §1

T5 sequence (P08631 22-526): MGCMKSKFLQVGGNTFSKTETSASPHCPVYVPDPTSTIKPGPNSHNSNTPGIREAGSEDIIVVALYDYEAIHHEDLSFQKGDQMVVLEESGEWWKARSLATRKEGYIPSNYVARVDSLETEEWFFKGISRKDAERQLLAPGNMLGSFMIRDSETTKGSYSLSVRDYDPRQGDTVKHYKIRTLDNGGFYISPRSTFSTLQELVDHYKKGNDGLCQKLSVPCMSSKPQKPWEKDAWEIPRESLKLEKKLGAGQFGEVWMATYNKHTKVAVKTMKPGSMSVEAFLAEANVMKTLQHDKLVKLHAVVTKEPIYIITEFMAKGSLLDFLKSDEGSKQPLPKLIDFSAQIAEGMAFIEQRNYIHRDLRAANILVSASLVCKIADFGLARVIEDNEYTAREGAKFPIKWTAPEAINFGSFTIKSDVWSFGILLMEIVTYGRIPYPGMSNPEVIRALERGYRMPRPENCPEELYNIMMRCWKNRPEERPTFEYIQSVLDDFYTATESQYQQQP
T4 sequence (P12931 whole entry): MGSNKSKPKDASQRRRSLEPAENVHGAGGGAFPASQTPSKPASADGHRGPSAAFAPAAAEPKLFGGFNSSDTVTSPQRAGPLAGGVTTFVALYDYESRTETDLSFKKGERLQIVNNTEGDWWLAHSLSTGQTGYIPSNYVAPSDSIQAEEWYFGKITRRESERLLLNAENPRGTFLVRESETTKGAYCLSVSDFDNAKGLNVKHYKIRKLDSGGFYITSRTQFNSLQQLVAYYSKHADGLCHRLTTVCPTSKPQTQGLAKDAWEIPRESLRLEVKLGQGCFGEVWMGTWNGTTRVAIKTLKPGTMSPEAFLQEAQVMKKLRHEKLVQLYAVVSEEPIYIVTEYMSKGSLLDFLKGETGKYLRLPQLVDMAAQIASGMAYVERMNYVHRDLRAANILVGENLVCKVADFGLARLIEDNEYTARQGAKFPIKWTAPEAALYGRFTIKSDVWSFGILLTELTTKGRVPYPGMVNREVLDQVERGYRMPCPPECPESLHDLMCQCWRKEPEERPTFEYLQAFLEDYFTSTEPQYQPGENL
T2 sequence (P49840 whole entry, canonical isoform): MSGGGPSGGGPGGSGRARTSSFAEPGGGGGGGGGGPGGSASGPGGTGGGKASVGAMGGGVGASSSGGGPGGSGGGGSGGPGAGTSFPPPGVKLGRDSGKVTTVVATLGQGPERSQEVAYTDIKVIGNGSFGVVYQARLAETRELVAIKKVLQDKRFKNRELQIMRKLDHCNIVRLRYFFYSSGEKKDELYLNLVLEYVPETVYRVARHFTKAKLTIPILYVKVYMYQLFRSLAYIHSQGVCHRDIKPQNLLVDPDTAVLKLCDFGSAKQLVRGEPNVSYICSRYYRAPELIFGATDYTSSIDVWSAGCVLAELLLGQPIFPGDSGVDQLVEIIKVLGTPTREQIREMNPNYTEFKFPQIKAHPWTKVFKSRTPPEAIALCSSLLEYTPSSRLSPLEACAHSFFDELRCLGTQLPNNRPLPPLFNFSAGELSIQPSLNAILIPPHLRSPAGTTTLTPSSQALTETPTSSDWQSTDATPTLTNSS

IC50 (Syk) [nM]	IC50 [1] [nM]	IC50 (GSK 3α enzyme isoform) [nM]	IC50 (p38MAPKγ (MAPK12)) [nM]	IC50 (c-Src) [nM]	EC50 [2] [nM]	IC50 (Hck) [nM]	Structure (SMILES)	MTT Assay Cell viability at time point indicated in d-U937 Cells, 4 h (d-U937 cells)	MTT Assay Cell viability at time point indicated in d-U937 Cells, 24 h (d-U937 cells)
4150	15.6	2800	473	402	5.8	110	Cc1ccc(-n2nc(C(C)(C)C)cc2NC(=O)Nc2ccc(OCc3ccnc(Nc4cncc(C5CCC5)n4)c3)c3ccccc23)cc1 [Example 47]	− (−ve and +ve indicate the value is below and above, respectively, the no significant effect threshold defined as 30% inhibition at 10 μg/mL at the time point indicated)	− (−ve and +ve indicate the value is below and above, respectively, the no significant effect threshold defined as 30% inhibition at 10 μg/mL at the time point indicated)
> 15000	16.7	4210	1230	459	0.3	133	Cc1ccc(-n2nc(C(C)(C)C)cc2NC(=O)Nc2ccc(OCc3ccnc(Nc4cncc(C5CCCC5)n4)c3)c3ccccc23)cc1 [Example 48]	− (−ve and +ve indicate the value is below and above, respectively, the no significant effect threshold defined as 30% inhibition at 10 μg/mL at the time point indicated)	− (−ve and +ve indicate the value is below and above, respectively, the no significant effect threshold defined as 30% inhibition at 10 μg/mL at the time point indicated)
9250	24.3	4480	129	556	2.3	115	CC(C)(C)c1cc(NC(=O)Nc2ccc(OCc3ccnc(Nc4cnccn4)c3)c3ccccc23)n(-c2cccc(F)c2)n1 [Example 49]	− (−ve and +ve indicate the value is below and above, respectively, the no significant effect threshold defined as 30% inhibition at 10 μg/mL at the time point indicated)	− (−ve and +ve indicate the value is below and above, respectively, the no significant effect threshold defined as 30% inhibition at 10 μg/mL at the time point indicated)
5820	30.3	7080	356	966	7.1	113	CC(C)(C)c1cc(NC(=O)Nc2ccc(OCc3ccnc(Nc4cnccn4)c3)c3ccccc23)n(-c2cccc(Cl)c2)n1 [Example 50]	− (−ve and +ve indicate the value is below and above, respectively, the no significant effect threshold defined as 30% inhibition at 10 μg/mL at the time point indicated)	− (−ve and +ve indicate the value is below and above, respectively, the no significant effect threshold defined as 30% inhibition at 10 μg/mL at the time point indicated)
> 16300	25.7	> 16300	171	160	2.2	36	Cc1ccc(-n2nc(C(C)(C)C)cc2NC(=O)Nc2ccc(OCc3ccnc(Nc4cnccn4)c3)c3ccccc23)cc1C [Example 51]	− (−ve and +ve indicate the value is below and above, respectively, the no significant effect threshold defined as 30% inhibition at 10 μg/mL at the time point indicated)	− (−ve and +ve indicate the value is below and above, respectively, the no significant effect threshold defined as 30% inhibition at 10 μg/mL at the time point indicated)
> 15000	> 1500	> 15000	> 15000	> 15000	18.7	316	Cc1ccc(-n2nc(C(C)(C)C)cc2NC(=O)Nc2ccc(OCc3ccnc(Nc4cnccn4)c3)c3ccccc23)cc1C(F)(F)F [Example 52]	− (−ve and +ve indicate the value is below and above, respectively, the no significant effect threshold defined as 30% inhibition at 10 μg/mL at the time point indicated)	− (−ve and +ve indicate the value is below and above, respectively, the no significant effect threshold defined as 30% inhibition at 10 μg/mL at the time point indicated)
